Read-outs that look alike come from different tables or passages of the source.

For data set [1] the following is noted: for average flux: 16 mg/mL. As for the experimental part: A franz diffusion cell is obtained and prepared.
If testing films, one can perform the following next steps: (1) weigh films, punch to match diffusion area (or smaller), reweigh, record pre- and post-punching weight; (2) wet a donor area with approximately 100 μL of phosphate buffer; (3) place film on a donor surface, top with 400 μL of phosphate buffer, and start timers.
The tissue is dermatomed to precise thickness. • 4. […] The media is selected to ensure sink conditions. • 5.
The study compared concentrations of 4 mg/mL, 8 mg/mL, 16 mg/mL and 100 mg/mL. […]

The conditions of data set [2]: in vivo. As for the experimental part:
The study compared various dose routes: sublingual (SL), per oral tablet (PO), subcutaneous (SC) and intravenous (IV). […] An Oral Irritation assessment was performed (SL film group): Predose (0) and 24 hr postdose by Draize scoring.

For data set [3] the following is noted: PBS (pH 7.4), 37°±1° C., n=6; cited from earlier work.

With `CNC[C@H](O)c1ccc(O)c(O)c1` [Epinephrine Bitartrate], in data set [1], the “permeation as a function of solution pH” value is “slightly more favorable”. In addition, the average flux in data set [1] (30 min) was found to be 0 μg/cm^2*min; in data set [1] (45 min) it was 0.2604 μg/cm^2*min; in data set [1] (60 min) it was 0.3125 μg/cm^2*min; in data set [1] (120 min), 0.6727 μg/cm^2*min; in data set [1] (180 min) it was 1.076 μg/cm^2*min; in data set [1] (240 min), 1.029 μg/cm^2*min. Further, the average flux was found to be 1.25 μg/cm^2*min in data set [1] (300 min) and 1.385 μg/cm^2*min in data set [1] (360 min).
On to `CNC[C@H](O)c1ccc(OC(=O)C(C)(C)C)c(OC(=O)C(C)(C)C)c1` (racemic) [Dipivefrin, dipivefrin], for which, in data set [2], the “% Bioavailability, DIPI AUC0-t” value was 128.5% and the “% Bioavailability, EPI AUC0-t” value stood at 131.0%.
With `CC(C)NCC(O)COc1cccc2ccccc12` (stereo not drawn) [PP], in data set [3], the “concentration of saturated solution (C0)” value was 588005 ± 5852 µg/mL.

The values above are taken from patent US20250108017A1 (Aquestive Therapeutics, Inc., priority 2023, published 2025).
